Results as given in patent US9796700B2 (Celgene CAR LLC, priority 2013, dated 2017).

Target: Erk1 (Homo sapiens (Human), UniProt P27361)
Test: Protein Mass Modification Assay (intact protein MALDI)
Format: binding
In short: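 Human Erk1 was incubated 60 min at room temperature with a 10-fold molar excess of compound, then analysed as intact protein by MALDI with sinapinic acid matrix. The centroid mass shift versus untreated protein was divided by compound molecular weight to give percent modified protein.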

Sequence of Erk1 (P27361 whole entry, looked up): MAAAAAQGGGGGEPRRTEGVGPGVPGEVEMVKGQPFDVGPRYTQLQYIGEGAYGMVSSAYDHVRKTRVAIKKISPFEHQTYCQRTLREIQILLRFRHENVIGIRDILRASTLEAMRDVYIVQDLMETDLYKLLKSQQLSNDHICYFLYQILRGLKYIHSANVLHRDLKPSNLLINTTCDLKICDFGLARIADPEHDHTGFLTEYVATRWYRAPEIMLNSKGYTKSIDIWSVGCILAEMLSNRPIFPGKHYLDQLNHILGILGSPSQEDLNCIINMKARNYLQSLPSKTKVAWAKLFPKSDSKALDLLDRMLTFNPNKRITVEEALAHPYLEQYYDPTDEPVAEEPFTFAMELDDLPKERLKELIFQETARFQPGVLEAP

C=CC(=O)Nc1ccccc1Oc1nc(NC(C)(C)C)ncc1C(N)=O [Compound I-267, 4-(2-acrylamidophenoxy)-2-(tert-butylamino)pyrimidine-5-carboxamide]
ERK1 Mass Mod (%): E (provided a mass modification of ≧70%)

C=CC(=O)Nc1ccccc1Nc1nc(Nc2ccc(N3CCOCC3)cc2OC)ncc1C(C)=O [Compound I-273, N-(2-(5-acetyl-2-(2-methoxy-4-morpholinophenylamino)pyrimidin-4-ylamino)phenyl) acrylamide]
ERK1 Mass Mod (%): G (proived a mass modification ≦30%)

C=CC(=O)Nc1ccccc1Nc1nc(Nc2ccc(N3CCOCC3)cc2OC)ncc1/C(C)=N/OC [Compound I-274, (E)-N-(2-((2-((2-methoxy-4-morpholinophenyl)amino)-5-(1-(methoxyimino)ethyl)pyrimidin-4-yl)amino)phenyl)acrylamide]
ERK1 Mass Mod (%): G (proived a mass modification ≦30%)

C=CC(=O)Nc1ccccc1Nc1nc(Nc2ccc(N3CCOCC3)cc2OC)ncc1/C(C)=N/O [Compound I-275, (E)-N-(2-((5-(1-(hydroxyimino)ethyl)-2-((2-methoxy-4-morpholinophenyl)amino)pyrimidin-4-yl)amino)phenyl)acrylamide]
ERK1 Mass Mod (%): G (proived a mass modification ≦30%)

C=CC(=O)Nc1ccccc1Nc1nc(Nc2cc(OC)nc(N3CCCCC3)c2)ncc1C(F)(F)F [Compound I-282, N-(2-((2-((2-Methoxy-6-(piperidin-1-yl)pyridin-4-yl)amino)-5-(trifluoromethyl)pyrimidin-4-yl)amino)phenyl)acrylamide]
ERK1 Mass Mod (%): E (provided a mass modification of ≧70%)

C=CC(=O)Nc1ccccc1Nc1nc(Nc2cc(F)ccc2C)ncc1C(F)(F)F [Compound I-285, N-(2-((2-((5-Fluoro-2-methylphenyl)amino)-5-(trifluoromethyl)pyrimidin-4-yl)amino)phenyl)acrylamide]
ERK1 Mass Mod (%): E (provided a mass modification of ≧70%)

C=CC(=O)Nc1ccccc1Nc1nc(Nc2ccnc(F)c2)ncc1C(F)(F)F [Compound I-287, N-(2-((2-((2-Fluoropyridin-4-yl)amino)-5-(trifluoromethyl)pyrimidin-4-yl)amino)phenyl)acrylamide]
ERK1 Mass Mod (%): E (provided a mass modification of ≧70%)

C=CC(=O)Nc1cc(C)ccc1Nc1nc(Nc2ccnc(F)c2)ncc1C(F)(F)F [Compound I-288, N-(2-((2-((2-Fluoropyridin-4-yl)amino)-5-(trifluoromethyl)pyrimidin-4-yl)amino)-5-methylphenyl)acrylamide]
ERK1 Mass Mod (%): E (provided a mass modification of ≧70%)

C=CC(=O)Nc1ccccc1Nc1nc(Nc2ccnnc2)ncc1C(F)(F)F [Compound I-293, N-(2-((2-(Pyridazin-4-ylamino)-5-(trifluoromethyl)pyrimidin-4-yl)amino)phenyl) acrylamide]
ERK1 Mass Mod (%): E (provided a mass modification of ≧70%)

C=CC(=O)Nc1cc(C)ccc1Nc1nc(Nc2cc(NCCOC)nc(OC)c2)ncc1C(F)(F)F [Compound I-294, N-(2-((2-((2-methoxy-6-((2-methoxyethyl)amino)pyridin-4-yl)amino)-5-(trifluoromethyl)pyrimidin-4-yl)amino)-5-methylphenyl)acrylamide]
ERK1 Mass Mod (%): E (key: E: provided a mass modification of ≧70%; F: provided a mass modification of 31-69%; G: proived a mass modification ≦30%)

C=CC(=O)Nc1cc(C)ccc1Nc1nc(Nc2cc(C)nc(OC)c2)ncc1C(F)(F)F [Compound I-295, N-(2-((2-((2-methoxy-6-methylpyridin-4-yl)amino)-5-(trifluoromethyl)pyrimidin-4-yl)amino)-5-methylphenyl)acrylamide]
ERK1 Mass Mod (%): E (provided a mass modification of ≧70%)

C=CC(=O)Nc1ccccc1Nc1nc(Nc2cc(C(N)=O)c(OCCCNC(=O)CCCC(=O)NCCCOCCOCCOCCCNC(=O)CCCC[C@@H]3SC[C@@H]4NC(=O)N[C@@H]43)cc2C)ncc1Cl [Compound I-299, N^1-(3-(4-((4-((2-acrylamidophenyl)amino)-5-chloropyrimidin-2-yl)amino)-2-carbamoyl-5-methylphenoxy)propyl)-N^5-(15-oxo-19-((3aS,4S,6aR)-2-oxohexahydro-1H-thieno[3,4-d]imidazol-4-yl)-4,7,10-trioxa-14-azanonadecyl)glutaramide]
ERK1 Mass Mod (%): E (provided a mass modification of ≧70%)

C=CC(=O)Nc1ccccc1Nc1nc(NC2CCN(C(=O)CCCC(=O)NCCCOCCOCCOCCCNC(=O)CCCC[C@@H]3SC[C@@H]4NC(=O)N[C@@H]43)CC2)ncc1Cl [Compound I-300, 5-(4-((4-((2-acrylamidophenyl)amino)-5-chloropyrimidin-2-yl)amino)piperidin-1-yl)-5-oxo-N-(15-oxo-19-((3aS,4S,6aR)-2-oxohexahydro-1H-thieno[3,4-d]imidazol-4-yl)-4,7,10-trioxa-14-azanonadecyl)pentanamide]
ERK1 Mass Mod (%): E (provided a mass modification of ≧70%)

C=CC(=O)Nc1ccccc1Nc1nc(Nc2ccc(NC(=O)CCCC(=O)NCCCOCCOCCOCCCNC(=O)CCCC[C@H]3SC[C@H]4NC(=O)N[C@H]43)cc2OC)ncc1Cl [Compound I-301, N^1-(4-((4-((2-acrylamidophenyl)amino)-5-chloropyrimidin-2-yl)amino)-3-methoxyphenyl)-N^5-(15-oxo-19-((3aR,4R,6aS)-2-oxohexahydro-1H-thieno[3,4-d]imidazol-4-yl)-4,7,10-trioxa-14-azanonadecyl)glutaramide]
ERK1 Mass Mod (%): E (provided a mass modification of ≧70%)

C=CC(=O)Nc1ccccc1Nc1nc(Nc2cc(NC(=O)CCCC(=O)NCCCOCCOCCOCCCNC(=O)CCCC[C@@H]3SC[C@@H]4NC(=O)N[C@@H]43)cc(C(N)=O)c2)ncc1Cl [Compound I-304, N^1-(3-((4-((2-acrylamidophenyl)amino)-5-chloropyrimidin-2-yl)amino)-5-carbamoylphenyl)-N-(15-oxo-19-((3aS,4S,6aR)-2-oxohexahydro-1H-thieno[3,4-d]imidazol-4-yl)-4,7,10-trioxa-14-azanonadecyl)glutaramide]
ERK1 Mass Mod (%): G (proived a mass modification ≦30%)

C=CC(=O)Nc1ccccc1Nc1nc(Nc2cc(C(N)=O)c(OCCCNC(=O)C#CC)cc2C)ncc1Cl [Compound I-305, 5-((4-((2-acrylamidophenyl)amino)-5-chloropyrimidin-2-yl)amino)-2-(3-(but-2-ynamido)propoxy)-4-methylbenzamide]
ERK1 Mass Mod (%): E (provided a mass modification of ≧70%)

C=CC(=O)Nc1ccccc1Nc1nc(Nc2ccc(N3CCN(C(=O)CCCC(=O)NCCCOCCOCCOCCCNC(=O)CCCC[C@@H]4SC[C@@H]5NC(=O)N[C@@H]54)CC3)cc2OC(F)F)ncc1Cl [Compound I-306, 5-(4-(4-((4-((2-acrylamidophenyl)amino)-5-chloropyrimidin-2-yl)amino)-3-(difluoromethoxy)phenyl)piperazin-1-yl)-5-oxo-N-(15-oxo-19-((3aS,4S,6aR)-2-oxohexahydro-1H-thieno[3,4-d]imidazol-4-yl)-4,7,10-trioxa-14-azanonadecyl)pentanamide]
ERK1 Mass Mod (%): E (provided a mass modification of ≧70%)
